How the values were obtained:
Assay type in all cases: cell-based, HIV-1
HIV strain Y181C = experiment: Cellular anti-HIV assay in MT4 LTR-EGFP cells, mutant Y181C; conditions: Human immunodeficiency virus 1, read-out: Y181C pEC50 (converted)
Protocol: (§1) Because of the increasing emergence of drug resistant HIV strains, the present compounds were tested for their potency against clinically isolated HIV strains harbouring several mutations. These mutations are associated with resistance to reverse transcriptase inhibitors and result in viruses that show various degrees of phenotypic cross-resistance to the currently commercially available drugs such as for instance AZT and delavirdine.
(§2) The antiviral activity of the compound of the present invention has been evaluated in the presence of wild type HIV and HIV mutants bearing mutations at the reverse transcriptase gene. The activity of the compounds is evaluated using a cellular assay which was performed according to the following procedure.
(§3) The human T-cell line MT4 is engineered with Green Fluorescent Protein (GFP) and an HIV-specific promoter, HIV-1 long terminal repeat (LTR). This cell line is designated MT4 LTR-EGFP, and can be used for the in vitro evaluation of anti-HIV activity of investigational compounds. In HIV-1 infected cells, the Tat protein is produced which upregulates the LTR promotor and finally leads to stimulation of the GFP reporter production, allowing to measure ongoing HIV-infection fluorometrically. Analogously, MT4 cells are engineered with GFP and the constitutional cytomegalovirus (CMV) promotor. This cell line is designated MT4 CMV-EGFP, and can be used for the in vitro evaluation of cytotoxicity of investigational compounds. In this cell line, GFP levels are comparably to those of infected MT4 LTR-EGFP cells. Cytotoxic investigational compounds reduce GFP levels of mock-infected MT4 CMV-EGFP cells.
(§4) Effective concentration values such as 50% effective concentration (EC50) can be determined and are usually expressed in μM. An EC50 value is defined as the concentration of test compound that reduces the fluorescence of HIV-infected cells by 50%. The 50% cytotoxic concentration (CC50 in μM) is defined as the concentration of test compound that reduces fluorescence of the mock-infected cells by 50%. The ratio of CC50 to EC50 is defined as the selectivity index (SI) and is an indication of the selectivity of the anti-HIV activity of the inhibitor. The ultimate monitoring of HIV-1 infection and cytotoxicity is done using a scanning microscope. Image analysis allows very sensitive detection of viral infection. Measurements are done before cell necrosis, which usually takes place about five days after infection, in particular measurements are performed three days after infection.
(§5) The columns IIIB, L100I, etc. in the table list the pEC50 values against various strains IIIB, L100I, etc.

HIV strain L100I + K103N = experiment: Cellular anti-HIV assay in MT4 LTR-EGFP cells, mutant L100I + K103N; conditions: Human immunodeficiency virus 1, 72 h, read-out: L100I + K103N pEC50 (converted)
Protocol: as §1, §2, §3, §4, §5

HIV strain Y188L = experiment: Cellular anti-HIV assay in MT4 LTR-EGFP cells, mutant Y188L; conditions: Human immunodeficiency virus 1, read-out: Y188L pEC50 (converted)
Protocol: as §1, §2, §3, §4, §5

HIV strain K103N = experiment: Cellular anti-HIV assay in MT4 LTR-EGFP cells, mutant K103N; conditions: Human immunodeficiency virus 1, read-out: K103N pEC50 (converted)
Protocol: as §1, §2, §3, §4, §5

HIV strain L100I = experiment: Cellular anti-HIV assay in MT4 LTR-EGFP cells, mutant L100I; conditions: Human immunodeficiency virus 1, read-out: L100I pEC50 (converted)
Protocol: as §1, §2, §3, §4, §5

[1] = system: HIV strain IIIB (wild type); experiment: Cellular anti-HIV assay in MT4 LTR-EGFP cells, strain IIIB (wild type); selectivity index versus cytotoxicity in mock-infected MT4 CMV-EGFP cells; conditions: for EC50: Human immunodeficiency virus 1, 72 h, wild type HIV strain IIIB, MT4 LTR-EGFP cells, fluorescence, three days after infection, read-out: IIIB pEC50 (converted); for IIIB pSi: selectivity index = ratio of CC50 (mock-infected MT4 CMV-EGFP cells) to EC50 (IIIB), given as p value
Protocol: as §2, §3, §4, §5
Strain IIIB is wild type HIV strain

HIV strain K103N + Y181C = experiment: Cellular anti-HIV assay in MT4 LTR-EGFP cells, mutant K103N + Y181C; conditions: Human immunodeficiency virus 1, 72 h, read-out: K103N + Y181C pEC50 (converted)
Protocol: as §1, §2, §3, §4, §5

HIV strain MDR = experiment: Cellular anti-HIV assay in MT4 LTR-EGFP cells, MDR strain; conditions: Human immunodeficiency virus 1, read-out: MDR pEC50 (converted)
Protocol: as §1, §2, §3, §4, §5
MDR refers to a strain that contains mutations L100I, K103N, Y181C, E138G, V1791, L2214F, V278V/I and A327A/V in HIV reverse transcriptase.

| SMILES | EC50 (HIV strain Y181C) [nM] | EC50 (HIV strain L100I + K103N) [nM] | EC50 (HIV strain Y188L) [nM] | EC50 (HIV strain K103N) [nM] | EC50 (HIV strain L100I) [nM] | EC50 [1] [nM] | IIIB pSi [1] | EC50 (HIV strain K103N + Y181C) [nM] | EC50 (HIV strain MDR) [nM] |
| --- | --- | --- | --- | --- | --- | --- | --- | --- | --- |
| Cc1cc(/C=C/C#N)cc(C)c1Nc1nc(Nc2ccc(C#N)cc2)ncc1C(=O)N1CCCCC1 [Compound 2] | 126 | 200 | 398 | 12.6 | 63.1 | 3.16 | >3.90 | 501 | 10000 |
| Cc1cc(/C=C/C#N)cc(C)c1Nc1nc(Nc2ccc(C#N)cc2)ncc1C(=O)Nc1ccccn1 [Compound 3] | 15.8 | 12.6 | 25.1 | 3.16 | 5.01 | 2 | 4.00 | 63.1 | 2510 |
| Cc1cc(/C=C/C#N)cc(C)c1Nc1nc(Nc2ccc(C#N)cc2)ncc1C(=O)N(C)c1ccccc1 [Compound 5] | 100 | 50.1 | 100 | 10 | 25.1 | 5.01 | >3.70 | 158 | 3980 |
| Cc1cc(/C=C/C#N)cc(C)c1Nc1nc(Nc2ccc(C#N)cc2)ncc1C(=O)N1CCN(C)CC1 [Compound 6] | 100 | 1260 | 316 | 5.01 | 158 | 1.58 | >4.20 | 398 | 10000 |
| Cc1cc(/C=C/C#N)cc(C)c1Nc1nc(Nc2ccc(C#N)cc2)ncc1C(=O)N(C)CCO [Compound 7] | 20 | 50.1 | 50.1 | 2 | 7.94 | 1.58 | 4.00 | 63.1 | 2000 |
| COCCCNC(=O)c1cnc(Nc2ccc(C#N)cc2)nc1Nc1c(C)cc(/C=C/C#N)cc1C [Compound 9] | 12.6 | 25.1 | 15.8 | 3.16 | 5.01 | 2.51 | >4.00 | 20 | 1000 |
| Cc1cc(/C=C/C#N)cc(C)c1Nc1nc(Nc2ccc(C#N)cc2)ncc1C(=O)NCC1COC(C)(C)O1 (stereo not drawn) [Compound 10] | 15.8 | 39.8 | 20 | 3.16 | 3.98 | 2.51 | >4.00 | 63.1 | 501 |
| CCOC(=O)CN(C)C(=O)c1cnc(Nc2ccc(C#N)cc2)nc1Nc1c(C)cc(/C=C/C#N)cc1C [Compound 11] | 39.8 | 50.1 | 25.1 | 3.98 | 7.94 | 2 | 3.40 | 79.4 | 1580 |
| Cc1cc(/C=C/C#N)cc(C)c1Nc1nc(Nc2ccc(C#N)cc2)ncc1C(=O)NCC1CCCO1 (stereo not drawn) [Compound 12] | 15.8 | 20 | 10 | 2.51 | 2.51 | 1.26 | 4.10 | 12.6 | 1000 |
| CCOC(=O)CCNC(=O)c1cnc(Nc2ccc(C#N)cc2)nc1Nc1c(C)cc(/C=C/C#N)cc1C [Compound 14] | 12.6 | 15.8 | 12.6 | 2.51 | 2.51 | 2.51 | >4.00 | 10 | 631 |
| Cc1cc(/C=C/C#N)cc(C)c1Nc1nc(Nc2ccc(C#N)cc2)ncc1C(=O)NCc1ccncc1 [Compound 15] | 15.8 | 63.1 | 20 | 3.16 | 12.6 | 3.16 | 3.70 | 20 | 200 |
| Cc1cc(/C=C/C#N)cc(C)c1Nc1nc(Nc2ccc(C#N)cc2)ncc1C(=O)Nc1cccc(Cl)c1 [Compound 16] | 200 | 501 | 501 | 3.98 | 79.4 | 25.1 | 2.60 | 316 | 7940 |
| Cc1cc(/C=C/C#N)cc(C)c1Nc1nc(Nc2ccc(C#N)cc2)ncc1C(=O)NCc1ccco1 [Compound 19] | 20 | 50.1 | 20 | 3.98 | 3.98 | 3.98 | 3.60 | 20 | 1000 |
| Cc1cc(/C=C/C#N)cc(C)c1Nc1nc(Nc2ccc(C#N)cc2)ncc1C(=O)NCc1cccs1 [Compound 20] | 39.8 | 100 | 50.1 | 5.01 | 15.8 | 5.01 | 3.60 | 31.6 | 2510 |
| Cc1cc(/C=C/C#N)cc(C)c1Nc1nc(Nc2ccc(C#N)cc2)ncc1C(=O)NCC#N [Compound 21] | 15.8 | 15.8 | 15.8 | 5.01 | 3.98 | 15.8 | 2.80 | 15.8 | 501 |
| Cc1cc(/C=C/C#N)cc(C)c1Nc1nc(Nc2ccc(C#N)cc2)ncc1C(=O)NCCN(C)C [Compound 22] | 15.8 | 100 | 50.1 | 0.631 | 20 | 0.794 | 3.90 | 20 | 2000 |

— patent US8933089B2, “HIV inhibiting 5-amido substituted pyrimidines” (Janssen R & D Ireland, priority 2006, dated 2015)
